{
  "source": "patent US20130039858A1",
  "about": "“NIR MATERIALS AND NANOMATERIALS FOR THERANOSTIC APPLICATIONS” (University of Florida Research Foundation, Inc., priority 2010, published 2013)",
  "origin": "cited, not measured here",
  "details": "in H2O",
  "data": [
    {"smiles": "CC1(C)C(/C=C/C=C/C=C/C=C2\\N(CCCCS(=O)(=O)O)c3ccc4ccccc4c3C2(C)C)=[N+](CCCCS(=O)(=O)[O-])c2ccc3ccccc3c21", "note": "[ICG, indocyanine green]", "values": [
      {"measurement": "critical micelle concentration", "value": "about 0.32 mg/mL"}
    ]}
  ]
}
